# According to paper PMC8274846, “Biogenic nanoporous silicon carrier improves the efficacy of buparvaquone against resistant visceral leishmaniasis” (PLoS Neglected Tropical Diseases, 2021):
# Where “and” joins values, the source holds several entries; their conditions need not be identical. Equal entries are not always repeated.
# Key:
# [1] = design: method as in PMID 1289357, PMID 14695832; settings: cited from earlier work
# [2] = test system: axenic L.donovani amastigotes, GE1 (isolated strain resistant to SSG); test: Antileishmanial activity against axenic amastigotes, GE1; assay type: cell-based
# Protocol: L. donovani AG83 (MHOM/IN/83/AG83) and GE1 (MHOM/IN/80/GE1F8R) promastigotes were routinely grown in medium 199 supplemented with 10% heat-inactivated fetal bovine serum, 2 mM L-glutamine, 20 mM HEPES, 100 U/mL penicillin, and 100 μg/mL streptomycin at 25°C. L. donovani amastigote forms were grown and maintained as described previously. Axenic amastigote forms were derived from promastigote forms by culturing them in MMA/20 (medium for axenic amastigote) at pH 5.5 [22]. Axenically grown amastigotes were maintained by sub-culture of 10^5 parasites/ml repeated every fifth day under experimental conditions of 37°C temperature and 5% CO2 environment.
# The antileishmanial activity of the drug specimens (BPQ+NP, BPQ, SSG, AmB, PMM, and MF) against the axenic amastigotes were evaluated based on the IC50 value, which is the concentration of the specimen required to kill 50% of the parasites. The parasites were first seeded into 96-well plates at a density of 1x10^5 amastigotes/well in 200 μL medium. Then, 10 μL of the drug candidates at various concentrations were added and the final volume was adjusted to […] medium. The number of amastigotes in the wells treated with each specimen were compared to those in the untreated control wells.
# (§1) Microscopic examinations were performed in duplicates with various concentrations of pure drugs or buparvaquone-loaded nanoparticles and also for control wells. The amastigotes cells were counted for all cases using a hemocytometer. The mean of the control wells was considered as 100% survival. The counts in the treated wells at various concentrations were converted into percentages. Giemsa-stained slides of the macrophages infected with amastigotes were observed under a light microscope. Then the numbers of amastigotes and infected macrophages per 100 cells were counted for each slide. The percentage (%) of inhibition was calculated by using the equation %ofinhibition=C−T/C×100, (2) where C is the number of amastigotes/infected macrophages per 100 cells in the control well and T is the number of amastigotes/infected macrophages per 100 cells in the drug-treated well.
# (§2) Origin version 6.1 software was used to calculate IC50 and CC50 values by plotting a graph of the percentage of inhibition at various concentrations of all the observations.
# [3] = test system: peritoneal macrophages; design: method as in earlier work; settings: ref 32 (Reimao et al.); cited from earlier work
# [4] = test system: intracellular L.donovani amastigotes, GE1, in macrophages; test: Antileishmanial activity against intracellular amastigotes, GE1; assay type: cell-based
# Protocol: (§3) The intracellular antileishmanial activity was evaluated based on the reduction in the amastigote numbers in the infected macrophages after the treatment. The method was adapted from our previous work. Briefly, 4x10^6 amastigotes in 500 μL of RPMI-1640 suspension were added to each well containing macrophages with the macrophage: parasite ratio of 1:10. The plates were incubated for 4 h at 37°C in 5% CO2. After the parasite internalization period, cells were washed at least twice with fresh media to remove non-phagocytosed parasites. Then, the drug specimen suspended in 1 mL RPMI-1640 was added, and the samples were incubated for 72 h at 37°C in 5% CO2. The medium was aspirated, the coverslips were removed, and then fixed with methanol and air-dried. After staining with Giemsa, 100 cells on the glass discs were counted. Three independent experiments in quadruplicate for each concentration were performed.
# as §1, §2
# [5] = test system: wild-type L. donovani AG83 amastigotes in spleen; test: Culture microtitration assay (CMA) in infected mice; assay type: in vivo, BALB/c mice; settings: for Spleen: 7 days post-treatment, n = 5; for Suppression (%) of L. donovani amastigote burden in spleen: CMA method, 2 mg/kg
# Protocol: The infected control group was injected with 0.2 mL of sterile water during the entire dosing period. Seven days post-treatment, the animals were sacrificed, and their spleens were aseptically removed and weighed for determination of amastigote burden by microtitration assay as described elsewhere. Wells were examined for viable and motile promastigotes. The final titer was the last dilution for which the well contained at least one parasite. […] (5) .
# [6] = test system: intracellular L.donovani amastigotes, AG83-R, PMM, in macrophages; test: microbe, parasite or virus in culture; assay type: cell-based
# Protocol: (§4) SSG and PMM resistant L. donovani amastigotes were generated by using the methods described previously. […] The cultures were stabilized for three subcultures. Then, the drug concentration was increased until the cell population decreased approximately to 20% for each batch. Finally, when 90% cell population of the initial count was reduced, the phenotype generated was plated on medium 199 agar plates containing the same drug concentration, and a single colony was picked for culture in medium 199 liquid media at the same drug concentration. The cultured promastigotes are converted into amastigotes as described above. Drug pressure was withdrawn, and stability was checked at one, two, and four months. SSG and PMM resistant phenotype clones were labeled as AG83-R,SSG and AG83-R, PMM, respectively.
# as §3, §1, §2
# [7] = test system: intracellular L.donovani amastigotes, AG83-R, SSG, in macrophages; test: microbe, parasite or virus in culture; assay type: cell-based
# Protocol: as §4, §3, §1, §2
# [8] = 2 doses of 2 mg/kg i.p. at 5 days interval
# [9] = 4 doses of 2 mg/kg i.p. at 5 days interval
structure (smiles),measurement,setting,value
"CC(C)(C)[C@H]1CC[C@H](CC2=C(O)C(=O)c3ccccc3C2=O)CC1 [BPQ, Buparvaquone]",Aqueous solubility,[1],< 0.03 µg/mL
same,Fold higher axenic IC50 of pure BPQ than BPQ+NP,[2]; GE1,4 fold
same,"Resistance index (RI), GE1","[2]; IC50 against drug resistant strain / IC50 against wild-type strain (AG83), axenic",1.2 ± 1.4
same,IC50,"[2]; Leishmania donovani, axenic amastigotes, mean ± σ, n = 4",4.1 ± 0.8 µM
same,CC50,[3],> 230 µM
same,"Selectivity index (SI), GE1","[4]; CC50/IC50, intracellular",90 ± 10
same,Fold larger cellular IC50 of pure BPQ than BPQ+NP,[4]; GE1,4 fold
same,IC50,"[4]; Leishmania donovani, Macrophage, intracellular amastigotes, 72 h, mean ± σ, n = 4, read-out: Cellular IC50, GE1",3.8 ± 0.4 µM
same,Spleen,[5]; [8],140 ± 22 mg
same,Suppression (%) of L. donovani amastigote burden in spleen,[5]; [8],52% and 52 ± 3 %
same,Spleen,[5]; [9],131 ± 18 mg
same,Suppression (%) of L. donovani amastigote burden in spleen,[5]; [9],64% and 64 ± 4 %
same,Reduction of parasite burden (CMA),"[5]; spleen, 2 mg/kg i.p., 2 or 4 doses at 5 days interval",50%
same,Fold larger cellular IC50 of pure BPQ than BPQ+NP,"[6]; AG83-R, PMM",5 fold
same,"Selectivity index (SI), AG83-R, PMM","[6]; CC50/IC50, intracellular",60 ± 10
same,IC50,"[6]; Leishmania donovani, Macrophage, 72 h, read-out: Cellular IC50, AG83-R, PMM",4.8 ± 0.5 µM
same,Fold larger cellular IC50 of pure BPQ than BPQ+NP,"[7]; AG83-R, SSG",5 fold
same,"Selectivity index (SI), AG83-R, SSG","[7]; CC50/IC50, intracellular",60 ± 10
same,IC50,"[7]; Leishmania donovani, Macrophage, 72 h, read-out: Cellular IC50, AG83-R, SSG",5.4 ± 0.4 µM
